Our source for the IC50 values is patent publication US20240294531A1, “COVALENT HETEROCYCLES AND USES THEREOF” (Kumquat Biosciences Inc., priority 2022, published 2024).

For test [1], the target named is BTK C481S protein (Homo sapiens (Human), UniProt Q06187, C481S). In words: BTK C481S HTRF displacement assay. The class given is binding. The settings on record: 1-hour incubation. Put shortly: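 Tracer displacement read by HTRF after 1 hour at room temperature: GST-BTK C481S 2-659, 50 nM tracer 239 (Kd 54 nM), anti-GST antibody, compound in six four-fold doses from 5 μM. Percent inhibition versus DMSO fitted (bottom 0, top 100) for IC50, converted to KI via Cheng-Prusoff.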
(In general: TR-FRET usually uses a lanthanide donor and a delayed reading to cut background.)

Test [2] concerns the target BTK wildtype protein (Homo sapiens (Human), UniProt Q06187). In words: BTK wildtype HTRF displacement assay. The note with it: 1-hour incubation; read-out: BTK (wt) IC50. The class given is binding. Put shortly: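 Tracer-displacement HTRF format: compound and tracer 239 compete at the BTK active site, detected via anti-GST-Tb on GST-tagged full-length enzyme. One-hour room-temperature incubation; compounds dosed at six four-fold steps down from 5 μM. Percent inhibition versus DMSO gives IC50 by constrained four-parameter logistic fit.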

Chain of BTK C481S protein (Q06187 2-659 C481S): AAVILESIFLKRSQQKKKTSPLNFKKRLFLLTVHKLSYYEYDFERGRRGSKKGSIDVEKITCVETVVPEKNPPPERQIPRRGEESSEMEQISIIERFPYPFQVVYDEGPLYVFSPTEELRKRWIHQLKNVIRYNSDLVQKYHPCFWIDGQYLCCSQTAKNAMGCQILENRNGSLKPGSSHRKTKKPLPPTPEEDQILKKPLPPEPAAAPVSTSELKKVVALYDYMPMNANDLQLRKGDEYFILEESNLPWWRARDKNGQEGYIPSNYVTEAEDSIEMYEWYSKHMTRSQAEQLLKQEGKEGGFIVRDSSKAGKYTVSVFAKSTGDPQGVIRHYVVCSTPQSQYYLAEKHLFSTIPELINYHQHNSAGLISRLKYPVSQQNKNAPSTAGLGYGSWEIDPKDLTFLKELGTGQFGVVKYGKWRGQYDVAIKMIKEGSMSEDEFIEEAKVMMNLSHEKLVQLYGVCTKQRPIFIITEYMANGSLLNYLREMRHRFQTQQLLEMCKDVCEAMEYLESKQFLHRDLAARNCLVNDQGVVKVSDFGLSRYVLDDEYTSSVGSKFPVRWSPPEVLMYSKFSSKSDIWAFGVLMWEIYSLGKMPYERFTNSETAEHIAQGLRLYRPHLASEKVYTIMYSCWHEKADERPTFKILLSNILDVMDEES
Chain of BTK wildtype protein (Q06187 2-659): as the sequence (Q06187 2-659 C481S) above, with S480C counted along it

A word on the IC50: it is the midpoint of a concentration-inhibition curve. Consider `COc1ccc(F)cc1C(=O)NCc1ccc(-c2nn(C(C)CN(C)C(=O)n3cncn3)c3ncnc(N)c23)cc1` (centres unmarked) [Compound 226, N-(2-(4-amino-3-(4-((5-fluoro-2-methoxybenzamido)methyl)phenyl)-1H-pyrazolo[3,4-d]pyrimidin-1-yl)propyl)-N-methyl-1H-1,2,4-triazole-1-carboxamide], for which the half-inhibitory concentration (IC50) in test [1] and in test [2] was not above 1000 nM each time.
Consider `CC1CC(n2nc(-c3ccc(Oc4ccccc4)cc3)c3c(N)ncnc32)CC(C)N1C(=O)n1cncn1` (centres unmarked) [Compound 101, (4-(4-amino-3-(4-phenoxyphenyl)-1H-pyrazolo[3,4-d]pyrimidin-1-yl)-2,6-dimethylpiperidin-1-yl)(1H-1,2,4-triazol-1-yl)methanone], for which the half-maximal inhibitory concentration (IC50) in test [1] and in test [2] was not above 1000 nM throughout.
Take `COc1ccc(F)cc1C(=O)NCc1ccc(-c2nn(C[C@@H]3CCCC[C@H]3CN(C)C(=O)n3cncn3)c3ncnc(N)c23)cc1` [Compound 130, N-(((1R,2R)-2-((4-amino-3-(4-((5-fluoro-2-methoxybenzamido)methyl)phenyl)-1H-pyrazolo [3,4-d]pyrimidin-1-yl)methyl)cyclohexyl)methyl)-N-methyl-1H-1,2,4-triazole-1-carboxamide]: the IC50 in test [1] and in test [2] was not above 1000 nM in each case.
For `CNc1c(C(N)=O)c(-c2ccc(Oc3ccccc3)cc2)nn1C[C@@H]1CCCCN1C(=O)n1cncn1` [Compound 238, (S)-1-((1-(1H-1,2,4-triazole-1-carbonyl)piperidin-2-yl)methyl)-5-(methylamino)-3-(4-phenoxyphenyl)-1H-pyrazole-4-carboxamide], the IC50 in test [1] is more than 1000 nM; in test [2] it was not above 1000 nM.
Taken in the same sequence, the figures for `CC1(C)CC(n2nc(-c3ccc(Oc4ccccc4)cc3)c3c(N)ncnc32)CCN1C(=O)n1cncn1` (centres unmarked) [Compound 148, (4-(4-amino-3-(4-phenoxyphenyl)-1H-pyrazolo[3,4-d]pyrimidin-1-yl)-2,2-dimethylpiperidin-1-yl)(1H-1,2,4-triazol-1-yl)methanone] were not above 1000 nM and not above 1000 nM.
Turning to `CN(CCC1CCNc2c(C(N)=O)c(-c3ccc(Oc4ccccc4)cc3)nn21)C(=O)n1cncn1` (centres unmarked) [Compound 244, 7-(2-(N-methyl-1H-1,2,4-triazole-1-carboxamido)ethyl)-2-(4-phenoxyphenyl)-4,5,6,7-tetrahydropyrazolo[1,5-a] pyrimidine-3-carboxamide], the concentration for half-maximal inhibition (IC50) in test [1] and in test [2] was not above 1000 nM each time.
As for `COc1ccc(F)cc1C(=O)NCc1ccc(-c2nn(C3(CCN(C)C(=O)n4cncn4)CCC3)c3ncnc(N)c23)cc1` [Compound 213, N-(2-(1-(4-amino-3-(4-((5-fluoro-2-methoxybenzamido)methyl)phenyl)-1H-pyrazolo[3,4-d]pyrimidin-1-yl)cyclobutyl)ethyl)-N-methyl-1H-1,2,4-triazole-1-carboxamide], the IC50 in test [1] and in test [2] was not above 1000 nM each time.
Turning to `COc1ccc(F)cc1C(=O)NCc1ccc(-c2nn(C(C)CC3CCCN3C(=O)n3cncn3)c3ncnc(N)c23)cc1` (centres unmarked) [Compound 279, N-(4-(1-(1-(1-(1H-1,2,4-triazole-1-carbonyl)pyrrolidin-2-yl)propan-2-yl)-4-amino-1H-pyrazolo[3,4-d]pyrimidin-3-yl)benzyl)-5-fluoro-2-methoxybenzamide], the concentration for half-maximal inhibition (IC50) in test [1] and in test [2] was more than 1000 nM in each case.
With `COc1ccc(F)cc1C(=O)NCc1ccc(-c2nn(CC3CCC3N(C)C(=O)n3cncn3)c3ncnc(N)c23)cc1` (centres unmarked) [Compound 209, N-(2-((4-amino-3-(4-((5-fluoro-2-methoxybenzamido)methyl)phenyl)-1H-pyrazolo[3,4-d]pyrimidin-1-yl)methyl)cyclobutyl)-N-methyl-1H-1,2,4-triazole-1-carboxamide], the concentration for half-maximal inhibition (IC50) in test [1] and in test [2] was not above 1000 nM each time.
For `COc1ccc(F)cc1C(=O)NCc1ccc(-c2nn(CCC3CCCCN3C(=O)n3cncn3)c3ncnc(N)c23)cc1` (centres unmarked) [Compound 146], the 50% inhibitory concentration (IC50) in test [1] and in test [2] was not above 1000 nM throughout.
On to `CN(C(=O)n1cncn1)[C@@H]1CCCC[C@H](n2nc(-c3ccc(Oc4ccccc4)cc3)c(C(N)=O)c2N)C1` [Compound 182, N-((1R,3S)-3-(5-amino-4-carbamoyl-3-(4-phenoxyphenyl)-1H-pyrazol-1-yl)cycloheptyl)-N-methyl-1H-1,2,4-triazole-1-carboxamide], for which the 50% inhibitory concentration (IC50) in test [1] and in test [2] was not above 1000 nM throughout.
As to `COc1ccc(F)cc1C(=O)NCc1ccc(-c2nn(CC3CC(C)CCN3C(=O)n3cncn3)c3ncnc(N)c23)cc1` (centres unmarked) [Compound 112, N-(4-(4-amino-1-((4-methyl-1-(1H-1,2,4-triazole-1-carbonyl)piperidin-2-yl)methyl)-1H-pyrazolo[3,4-d]pyrimidin-3-yl)benzyl)-5-fluoro-2-methoxybenzamide], the 50% inhibitory concentration (IC50) in test [1] and in test [2] was more than 1000 nM in each case.
For `COc1ccc(C)cc1C(=O)NCc1ccc(-c2nn(C3CCC(N(C)C(=O)n4cncn4)CC3)c3ncnc(N)c23)cc1` (centres unmarked) [Compound 258, N-(4-(4-amino-3-(4-((2-methoxy-5-methylbenzamido)methyl)phenyl)-1H-pyrazolo[3,4-d]pyrimidin-1-yl)cyclohexyl)-N-methyl-1H-1,2,4-triazole-1-carboxamide], the IC50 in test [1] and in test [2] was not above 1000 nM in each case.
With `CN(C(=O)n1cncn1)[C@H]1CCCC[C@H](n2nc(-c3ccc(Oc4ccccc4)cc3)c(C(N)=O)c2N)C1` [Compound 252, N-((1S,3S)-3-(5-amino-4-carbamoyl-3-(4-phenoxyphenyl)-1H-pyrazol-1-yl)cycloheptyl)-N-methyl-1H-1,2,4-triazole-1-carboxamide], the IC50 in test [1] and in test [2] was not above 1000 nM each time.
Turning to `COc1ccc(F)cc1C(=O)NCc1ccc(-c2nn(C(C)CN(C)C(=O)n3cncn3)c(N)c2C(N)=O)cc1` (centres unmarked) [Compound 218, N-(2-(5-amino-4-carbamoyl-3-(4-((5-fluoro-2-methoxybenzamido)methyl)phenyl)-1H-pyrazol-1-yl)propyl)-N-methyl-1H-1,2,4-triazole-1-carboxamide], the concentration for half-maximal inhibition (IC50) in test [1] and in test [2] was not above 1000 nM throughout.
Take `NC(=O)c1c(-c2ccc(Oc3ccccc3)cc2)nn(C[C@@H]2CCCCN2C(=O)n2cncn2)c1N` [Compound 184, (S)-1-((1-(1H-1,2,4-triazole-1-carbonyl)piperidin-2-yl)methyl)-5-amino-3-(4-phenoxyphenyl)-1H-pyrazole-4-carboxamide]: the 50% inhibitory concentration (IC50) in test [1] and in test [2] was not above 1000 nM throughout.
With `NC(=O)c1c(-c2ccc(Oc3ccccc3)cc2)nn2c1NCCC2C1CCCN(C(=O)n2cncn2)C1` (centres unmarked) [Compound 207, 7-(1-(1H-1,2,4-triazole-1-carbonyl)piperidin-3-yl)-2-(4-phenoxy-phenyl)-4,5,6,7-tetrahydro-pyrazolo[1,5-a]pyrimidine-3-carboxamide], the 50% inhibitory concentration (IC50) in test [1] and in test [2] was not above 1000 nM each time.
As to `COc1ccc(F)cc1C(=O)NCc1ccc(-c2nn(C(C)C3CCN(C(=O)n4cncn4)C3)c3ncnc(N)c23)cc1` (centres unmarked) [Compound 172, N-(4-(1-(1-(1-(1H-1,2,4-triazole-1-carbonyl)pyrrolidin-3-yl)ethyl)-4-amino-1H-pyrazolo[3,4-d]pyrimidin-3-yl)benzyl)-5-fluoro-2-methoxybenzamide], the 50% inhibitory concentration (IC50) in test [1] and in test [2] was not above 1000 nM in each case.
In the case of `COc1ccc(F)cc1C(=O)NCc1ccc(-c2nn([C@@H]3CCC[C@H](N(C)C(=O)n4cncn4)C3)c(N)c2C(N)=O)cc1` (relative stereo) [Compound 284, N-((1S,3R)-3-(5-amino-4-carbamoyl-3-(4-((5-fluoro-2-methoxy-benzamido)methyl)phenyl)-1H-pyrazol-1-yl)cyclohexyl)-N-methyl-1H-1,2,4-triazole-1-carboxamide], the IC50 in test [1] and in test [2] was not above 1000 nM each time.
